Data reported in patent publication US11964971B2, “Methods and compositions for modulating splicing” (Skyhawk Therapeutics, Inc., priority 2019, dated 2024).

Key:
MDR1 = experiment: in vitro; settings: dog; for Papp A→B at 120 min, 5 μM: MDCK-MDR1, pH 7.4, MDCK-MDR1: Papp A-B (10^−6, cm/s); for Papp B→A at 120 min, 5 μM: MDCK-MDR1, pH 7.4, MDCK-MDR1: Papp B-A (10^−6, cm/s)
Method: (§1) Experimental Procedure: MDR1-MDCK cell monolayers are grown to confluence on collagen-coated, microporous membranes in 12-well assay plates. The permeability assay buffer is Hanks' balanced salt solution containing 10 mM HEPES and 15 mM glucose at a pH of 7.4. The buffer in the receiver chamber also contained 1% bovine serum albumin. The dosing solution concentration is 5 μM of test article in the assay buffer. Cell monolayers are dosed on the apical side (A-to-B) or basolateral side (B-to-A) and incubated at 37° C. with 5% CO2 in a humidified incubator. Samples are taken from the donor and receiver chambers at 120 minutes. Each determination is performed in duplicate. The flux of lucifer yellow is also measured post-experimentally for each monolayer to ensure no damage was inflicted to the cell monolayers during the flux period. All samples are assayed by LC-MS/MS using electrospray ionization.
(§2) Analytical Method: Liquid Chromatography • Column: Waters ACQUITY UPLC BEH Phenyl 30×2.1 mm, 1.7 μm • M.P. Buffer: 25 mM ammonium formate buffer, pH 3.5 • Aqueous Reservoir (A): 90% water, 10% buffer • Organic Reservoir (B): 90% acetonitrile, 10% buffer • Flow Rate: 0.7 mL/minute • Gradient Program:
(§3) • Total Run Time: 1.00 minute • Autosampler: 2 μL injection volume • Wash1: water/methanol/2-propanol:1/1/1; with 0.2% formic acid • Wash2: 0.1% formic acid in water • Brain Penetration • Potential Classification: A-B Papp≥3.0 and Efflux Ratio<3.0: High • A-B Papp≥3.0 and 10>Efflux Ratio≥3.0: Moderate • A-B Papp≥3.0 and Efflux Ratio≥10: Low • A-B Papp<3.0: Low

MDR1 (P-gp) = experiment: MDCK-MDR1 permeability assay, blood-brain-barrier penetration potential; settings: dog, MDCK-MDR1, pH 7.4, MDCK-MDR1 Efflux Ratio
Method: as §1, §2, §3

SMN protein = SMN protein assay (MSD) in SMA patient fibroblasts (GM03813); assay type: cell-based, human
Method: Compounds are tested on spinal muscular atrophy (SMA) patient fibroblasts (GM03813, Coriell) at doses ranging from 2.5 μM to 0.6 nM. 7000 cells/well are seeded in 96-well plates. Compounds are incubated for 48 hours and the cells were lysed with 100 μL of lysis buffer. 20 μL of lysate is used for SMN protein measurement by Mesoscale Discovery (MSD) assay developed by PharmOptima (Michigan). A standard curve prepared with SMN protein ranging from […] is used in each MSD plate to calculate the absolute SMN protein amount in each sample.

[1] = system: MDR1-MDCK cell monolayers; settings: dog, MDCK-MDR1, 120 min, 5 μM, pH 7.4
Method: as §1, §2, §3

COc1cc(-c2cc(O)c(-c3cnc(N(C)[C@H]4C[C@@H]5CCC(N5)[C@H]4F)cn3)cc2F)ccn1 (single isomer, unassigned) [Compound 30E2]
Papp A→B at 120 min, 5 μM (MDR1): 2.55 ×10⁻⁶ cm/s | Papp B→A at 120 min, 5 μM (MDR1): 4.14 ×10⁻⁶ cm/s | efflux ratio at 120 min, 5 μM (MDR1 (P-gp)): 2 | EC50 (SMN protein): 51 to 100 nM | MDCK-MDR1: % Recov A-B (%) [1]: 10% | MDCK-MDR1: % Recov B-A (%) [1]: 37%

COc1cc(-c2cc(O)c(-c3cnc(N(C)[C@@H]4CC5N[C@H](C4)CC5(F)F)cn3)cc2F)cnn1 (single isomer, unassigned) [Compound 67E2]
Papp A→B at 120 min, 5 μM (MDR1): 14.3 ×10⁻⁶ cm/s | Papp B→A at 120 min, 5 μM (MDR1): 55.4 ×10⁻⁶ cm/s | efflux ratio at 120 min, 5 μM (MDR1 (P-gp)): 4 | EC50 (SMN protein): 501 to 10000 nM | MDCK-MDR1: % Recov A-B (%) [1]: 60% | MDCK-MDR1: % Recov B-A (%) [1]: 68%

COc1cc(-c2cc(O)c(-c3cnc(N(C)[C@@H]4CC5CC(F)(F)[C@@H](C4)N5)cn3)cc2F)cnn1 (single isomer, unassigned) [Compound 67E1]
Papp A→B at 120 min, 5 μM (MDR1): 22.2 ×10⁻⁶ cm/s | Papp B→A at 120 min, 5 μM (MDR1): 42.5 ×10⁻⁶ cm/s | efflux ratio at 120 min, 5 μM (MDR1 (P-gp)): 2 | EC50 (SMN protein): 501 to 10000 nM | MDCK-MDR1: % Recov A-B (%) [1]: 62% | MDCK-MDR1: % Recov B-A (%) [1]: 74%

CN(c1cnc(-c2cc(F)c(-c3cnn(C)c3)cc2O)cn1)[C@@H]1CC2N[C@H](C1)CC2(F)F (single isomer, unassigned) [Compound 66E2]
Papp A→B at 120 min, 5 μM (MDR1): 22.7 ×10⁻⁶ cm/s | Papp B→A at 120 min, 5 μM (MDR1): 18.3 ×10⁻⁶ cm/s | efflux ratio at 120 min, 5 μM (MDR1 (P-gp)): 1 | EC50 (SMN protein): 501 to 10000 nM | MDCK-MDR1: % Recov A-B (%) [1]: 43% | MDCK-MDR1: % Recov B-A (%) [1]: 55%

CN(c1cnc(-c2cc(F)c(-n3ccnn3)cc2O)cn1)[C@H]1C[C@@H]2CCC(N2)[C@H]1F (single isomer, unassigned) [Compound 21E2]
Papp A→B at 120 min, 5 μM (MDR1): 11.3 ×10⁻⁶ cm/s | Papp B→A at 120 min, 5 μM (MDR1): 48 ×10⁻⁶ cm/s | efflux ratio at 120 min, 5 μM (MDR1 (P-gp)): 4 | EC50 (SMN protein): 501 to 10000 nM | MDCK-MDR1: % Recov A-B (%) [1]: 78% | MDCK-MDR1: % Recov B-A (%) [1]: 85%

Cn1cc(-c2cc(O)c(-c3cnc(N(C4CC4)[C@@H]4C[C@H]5CC[C@H](N5)[C@@H]4F)cn3)cc2F)cn1 [Compound 35E1, 2-(5-(cyclopropyl((1S,2S,3R,5R)-2-fluoro-8-azabicyclo[3.2.1]octan-3-yl)amino)pyrazin-2-yl)-4-fluoro-5-(1-methyl-1H-pyrazol-4-yl)phenol]
Papp A→B at 120 min, 5 μM (MDR1): 3 ×10⁻⁶ cm/s | Papp B→A at 120 min, 5 μM (MDR1): 17.9 ×10⁻⁶ cm/s | efflux ratio at 120 min, 5 μM (MDR1 (P-gp)): 6 | EC50 (SMN protein): 501 to 10000 nM | MDCK-MDR1: % Recov A-B (%) [1]: 36% | MDCK-MDR1: % Recov B-A (%) [1]: 62%

CN(c1cnc(-c2cc3ncn(CC(F)(F)F)c(=O)c3cc2O)cn1)[C@@H]1CC2CCC[C@H](N2)[C@@H]1F (single isomer, unassigned) [Compound 18E1]
Papp A→B at 120 min, 5 μM (MDR1): 0.92 ×10⁻⁶ cm/s | Papp B→A at 120 min, 5 μM (MDR1): 65.1 ×10⁻⁶ cm/s | efflux ratio at 120 min, 5 μM (MDR1 (P-gp)): 71 | EC50 (SMN protein): 501 to 10000 nM | MDCK-MDR1: % Recov A-B (%) [1]: 78% | MDCK-MDR1: % Recov B-A (%) [1]: 86%

COc1cc(-c2ccc(-c3cnc(N(C)[C@@H]4CC5N[C@H](C4)CC5(F)F)cn3)c(O)c2)cnn1 (single isomer, unassigned) [Compound 68E1]
Papp A→B at 120 min, 5 μM (MDR1): 9.35 ×10⁻⁶ cm/s | Papp B→A at 120 min, 5 μM (MDR1): 43 ×10⁻⁶ cm/s | efflux ratio at 120 min, 5 μM (MDR1 (P-gp)): 5 | EC50 (SMN protein): 501 to 10000 nM | MDCK-MDR1: % Recov A-B (%) [1]: 63% | MDCK-MDR1: % Recov B-A (%) [1]: 86%

CN(c1cnc(-c2ccc(-c3cn[nH]c3)cc2O)cn1)[C@@H]1CC2CC[C@H](N2)[C@H]1F (single isomer, unassigned) [Compound 27E1]
Papp A→B at 120 min, 5 μM (MDR1): 3.87 ×10⁻⁶ cm/s | Papp B→A at 120 min, 5 μM (MDR1): 28.7 ×10⁻⁶ cm/s | efflux ratio at 120 min, 5 μM (MDR1 (P-gp)): 7 | EC50 (SMN protein): 501 to 10000 nM | MDCK-MDR1: % Recov A-B (%) [1]: 77% | MDCK-MDR1: % Recov B-A (%) [1]: 79%
